Columns and labels:
Assay in all cases: Glasshouse herbicidal test, pre- and post-emergence, percentage damage to the plant
Assay type in all cases: in vivo
Lolium perenne (LOLPE) = conditions: 250 g/h, evaluated after 13 days; for LOLPE POST percentage damage caused to the plant (five-point scale): post-emergence; for LOLPE PRE percentage damage caused to the plant (five-point scale): pre-emergence
Method: (§1) Seeds of a variety of test species are sown in standard soil in pots (Lolium perenne (LOLPE), Setaria faberi (SETFA), Alopecurus myosuroides (ALOMY), Echinochloa crus-galli (ECHCG), Avena fatua (AVEFA)). After cultivation for one day (pre-emergence) or after 8 days cultivation (post-emergence) under controlled conditions in a glasshouse (at 24/16° C., day/night; 14 hours light; 65% humidity), the plants are sprayed with an aqueous spray solution derived from the formulation of the technical active ingredient in acetone/water (50:50) solution containing 0.5% Tween 20 (polyoxyethelyene sorbitan monolaurate, CAS RN 9005-64-5). Compounds are applied at 250 g/h. The test plants are then grown in a glasshouse under controlled conditions in a glasshouse (at 24/16° C., day/night; 14 hours light; 65% humidity) and watered twice daily. After 13 days for pre and post-emergence, the test is evaluated for the percentage damage caused to the plant. The biological activities are shown in the following table on a five-point scale (5=80-100%; 4=60-79%; 3=40-59%; 2=20-39%; 1=0-19%).

[1] = test system: Alopecurus myosuroides (ALOMY); conditions: 250 g/h, evaluated after 13 days; for ALOMY POST percentage damage caused to the plant (five-point scale): post-emergence; for ALOMY PRE percentage damage caused to the plant (five-point scale): pre-emergence
Method: as §1

Setaria faberi (SETFA) = conditions: 250 g/h, evaluated after 13 days; for SETFA POST percentage damage caused to the plant (five-point scale): post-emergence; for SETFA PRE percentage damage caused to the plant (five-point scale): pre-emergence
Method: as §1

Avena fatua (AVEFA) = conditions: 250 g/h, evaluated after 13 days; for AVEFA POST percentage damage caused to the plant (five-point scale): post-emergence; for AVEFA PRE percentage damage caused to the plant (five-point scale): pre-emergence
Method: as §1

[2] = test system: Echinochloa crus-galli (ECHCG); conditions: 250 g/h, evaluated after 13 days; for ECHCG POST percentage damage caused to the plant (five-point scale): post-emergence; for ECHCG PRE percentage damage caused to the plant (five-point scale): pre-emergence
Method: as §1

| Compound | LOLPE POST percentage damage caused to the plant (five-point scale) (Lolium perenne (LOLPE)) | LOLPE PRE percentage damage caused to the plant (five-point scale) (Lolium perenne (LOLPE)) | ALOMY POST percentage damage caused to the plant (five-point scale) [1] | ALOMY PRE percentage damage caused to the plant (five-point scale) [1] | SETFA POST percentage damage caused to the plant (five-point scale) (Setaria faberi (SETFA)) | SETFA PRE percentage damage caused to the plant (five-point scale) (Setaria faberi (SETFA)) | AVEFA POST percentage damage caused to the plant (five-point scale) (Avena fatua (AVEFA)) | AVEFA PRE percentage damage caused to the plant (five-point scale) (Avena fatua (AVEFA)) | ECHCG POST percentage damage caused to the plant (five-point scale) [2] | ECHCG PRE percentage damage caused to the plant (five-point scale) [2] |
| --- | --- | --- | --- | --- | --- | --- | --- | --- | --- | --- |
| CC#Cc1cc(C)c(C2C(=O)CC3(CCC(=O)NC3)CC2=O)c(C)c1 (stereo not shown) [Compound A10] | 5 (5=80-100%) | 5 (5=80-100%) | 5 (5=80-100%) | 5 (5=80-100%) | 5 (5=80-100%) | 5 (5=80-100%) | 5 (5=80-100%) | 5 (5=80-100%) | 5 (5=80-100%) | 5 (5=80-100%) |
| CC#Cc1cc(C)c(C2C(=O)CC3(CCC(=O)N(C(C)=O)C3)CC2=O)c(C)c1 (stereo not shown) [Compound A11] | 5 (5=80-100%) | 5 (5=80-100%) | 5 (5=80-100%) | 5 (5=80-100%) | 5 (5=80-100%) | 5 (5=80-100%) | 5 (5=80-100%) | 3 (3=40-59%) | 5 (5=80-100%) | 5 (5=80-100%) |
| CC#Cc1cc(C)c(C2C(=O)CC3(CCC(=O)N(CC(=O)OC)C3)CC2=O)c(C)c1 (stereo not shown) [Compound A12] | 5 (5=80-100%) | 5 (5=80-100%) | 2 (2=20-39%) | 5 (5=80-100%) | 5 (5=80-100%) | 5 (5=80-100%) | 5 (5=80-100%) | 3 (3=40-59%) | 5 (5=80-100%) | 5 (5=80-100%) |
| CC#Cc1cc(C)c(C2C(=O)CC3(CCN4C(=O)CCCC4C3)CC2=O)c(C)c1 (stereo not shown) [Compound A13] | 5 (5=80-100%) | 5 (5=80-100%) | 5 (5=80-100%) | 5 (5=80-100%) | 5 (5=80-100%) | 5 (5=80-100%) | 5 (5=80-100%) | 5 (5=80-100%) | 5 (5=80-100%) | 5 (5=80-100%) |
| CC#Cc1cc(C)c(C2C(=O)CC3(CCN4C(=O)CCC4C3)CC2=O)c(C)c1 (stereo not shown) [Compound A14] | 5 (5=80-100%) | 5 (5=80-100%) | 5 (5=80-100%) | 5 (5=80-100%) | 5 (5=80-100%) | 5 (5=80-100%) | 5 (5=80-100%) | 5 (5=80-100%) | 5 (5=80-100%) | 5 (5=80-100%) |
| CC#Cc1cc(C)c(C2C(=O)CC3(C=CN(C(=O)COC)CC3)CC2=O)c(C)c1 (stereo not shown) [Compound A15] | 5 (5=80-100%) | 5 (5=80-100%) | 5 (5=80-100%) | 5 (5=80-100%) | 5 (5=80-100%) | 5 (5=80-100%) | 5 (5=80-100%) | 5 (5=80-100%) | 5 (5=80-100%) | 5 (5=80-100%) |
| CC#Cc1cc(C)c(C2C(=O)CC3(C=CN(C(=O)c4ccccn4)CC3)CC2=O)c(C)c1 (stereo not shown) [Compound A48] | 5 (5=80-100%) | 5 (5=80-100%) | 5 (5=80-100%) | 5 (5=80-100%) | 5 (5=80-100%) | 5 (5=80-100%) | 5 (5=80-100%) | 5 (5=80-100%) | 5 (5=80-100%) | 5 (5=80-100%) |
| CC#Cc1cc(C)c(C2C(=O)CC3(C=CN(C(=O)C4CC4)CC3)CC2=O)c(C)c1 (stereo not shown) [Compound A49] | 5 (5=80-100%) | 5 (5=80-100%) | 5 (5=80-100%) | 5 (5=80-100%) | 5 (5=80-100%) | 5 (5=80-100%) | 5 (5=80-100%) | 5 (5=80-100%) | 5 (5=80-100%) | 5 (5=80-100%) |
| CC#Cc1cc(C)c(C2C(=O)CC3(C=CN(C(=O)COC(F)F)CC3)CC2=O)c(C)c1 (stereo not shown) [Compound A50] | 5 (5=80-100%) | 5 (5=80-100%) | 5 (5=80-100%) | 5 (5=80-100%) | 5 (5=80-100%) | 5 (5=80-100%) | 5 (5=80-100%) | 5 (5=80-100%) | 5 (5=80-100%) | 5 (5=80-100%) |
| CC#Cc1cc(C)c(C2C(=O)CC3(C=CN(C(=O)CC#N)CC3)CC2=O)c(C)c1 (stereo not shown) [Compound A51] | 5 (5=80-100%) | 5 (5=80-100%) | 5 (5=80-100%) | 5 (5=80-100%) | 5 (5=80-100%) | 5 (5=80-100%) | 5 (5=80-100%) | 5 (5=80-100%) | 5 (5=80-100%) | 5 (5=80-100%) |

— US12479804B2, “Herbicidal compounds” (SYNGENTA CROP PROTECTION AG, priority 2019, dated 2025)
